The results in this text go back to patent US11261211B2, “19-NOR neuroactive steroids and methods of use thereof” (Sage Therapeutics, Inc., priority 2013, dated 2022).

By IC50 is commonly meant the concentration that gives 50% inhibition.

SMILES strings stand for the structures.

This assay addresses rat brain cortical membranes ([35S]-TBPS binding, GABA receptor complex). In words: Steroid inhibition of [35S]-TBPS binding. To be noted: 3 nM [35S]-TBPS, in the presence of 5 μM GABA. As to the method:
TBPS binding assays using rat brain cortical membranes in the presence of 5 μM GABA has been described (Gee et al, J. Pharmacol. Exp. Ther. 1987, 241, 346-353; Hawkinson et al, Mol. Pharmacol. 1994, 46, 977-985; Lewin, A. H et al., Mol. Pharmacol. 1989, 35, 189-194).
Briefly, cortices are rapidly removed following decapitation of carbon dioxide-anesthetized Sprague-Dawley rats (200-250 g). The cortices are homogenized in 10 volumes of ice-cold 0.32 M sucrose using a glass/teflon homogenizer and centrifuged at 1500×g for 10 min at 4° C. The resultant supernatants are centrifuged at 10,000×g for 20 min at 4° C. to obtain the P2 pellets. The P2 pellets are resuspended in 200 mM NaCl/50 mM Na-K phosphate pH 7.4 buffer and centrifuged at 10,000×g for 10 min at 4° C. This washing procedure is repeated twice and the pellets are resuspended in 10 volumes of buffer. Aliquots (100 μL) of the membrane suspensions are incubated with 3 nM [^35S]-TBPS and 5 μL aliquots of test drug dissolved in dimethyl sulfoxide (DMSO) (final 0.5%) in the presence of 5 μM GABA. The incubation is brought to a final volume of 1.0 mL with buffer. […] Filter bound radioactivity is measured by liquid scintillation spectrometry. […]

Consider `C[C@@]1(O)CC[C@H]2[C@H](CC[C@@H]3[C@@H]2CC[C@]2(C)[C@@H](C(=O)Cn4nc5cc(F)c(F)cc5n4)CC[C@@H]32)C1` [SA-53], for which the IC50 lay in the range of 10 to 50 nM.
